Assay results taken from PubChem BioAssay AID248 (DTP/NCI, 2004).
Where “and” joins values, the source holds several entries; their conditions need not be identical. Identical values can stand only once. Inconclusive results and toxic doses are left out.

Test system: L1210 leukemia ip in BDF1 mice, survival T/C
Assay: NCI In Vivo Anticancer Drug Screen. Data for tumor model L1210 Leukemia (intraperitoneal) in B6D2F1 (BDF1) mice
Details: endpoint: mean survival time, higher = longer survival
Outline: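 Each compound was tested against a transplantable tumor grown in mice. The endpoint was survival, with treated animals benchmarked against vehicle controls as a simple ratio.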

[1] = dose: 12.5 mg/kg/injection, schedule: Q01DX009 (ip), vehicle: saline with Tween-80
[2] = dose: 25.0 mg/kg/injection, schedule: Q01DX009 (ip), vehicle: saline with Tween-80
[3] = dose: 50.0 mg/kg/injection, schedule: Q01DX009 (ip), vehicle: saline with Tween-80
[4] = dose: 100.0 mg/kg/injection, schedule: Q01DX001 (ip), vehicle: saline
[5] = dose: 200.0 mg/kg/injection, schedule: Q01DX001 (ip), vehicle: saline
[6] = dose: 75.0 mg/kg/injection, schedule: Q01DX001 (ip), vehicle: Klucel (hydroxypropylcellulose) (HPC)
[7] = dose: 100.0 mg/kg/injection, schedule: Q01DX009 (ip), vehicle: Klucel (hydroxypropylcellulose) (HPC)
[8] = dose: 200.0 mg/kg/injection, schedule: Q01DX009 (ip), vehicle: Klucel (hydroxypropylcellulose) (HPC)
[9] = dose: 400.0 mg/kg/injection, schedule: Q01DX009 (ip), vehicle: Klucel (hydroxypropylcellulose) (HPC)
[10] = dose: 100.0 mg/kg/injection, schedule: Q04DX003 (ip), vehicle: Klucel (hydroxypropylcellulose) (HPC)
[11] = dose: 200.0 mg/kg/injection, schedule: Q04DX003 (ip), vehicle: Klucel (hydroxypropylcellulose) (HPC)
[12] = dose: 400.0 mg/kg/injection, schedule: Q04DX003 (ip), vehicle: Klucel (hydroxypropylcellulose) (HPC)
[13] = dose: 50.0 mg/kg/injection, schedule: Q01DX001 (ip), vehicle: saline
[14] = dose: 400.0 mg/kg/injection, schedule: Q01DX001 (ip), vehicle: saline
[15] = dose: 100.0 mg/kg/injection, schedule: Q04DX003 (ip), vehicle: saline with Tween-80
[16] = dose: 200.0 mg/kg/injection, schedule: Q04DX003 (ip), vehicle: saline with Tween-80
[17] = dose: 400.0 mg/kg/injection, schedule: Q04DX003 (ip), vehicle: saline with Tween-80
[18] = dose: 100.0 mg/kg/injection, schedule: Q04DX002 (ip), vehicle: saline with Tween-80
[19] = dose: 200.0 mg/kg/injection, schedule: Q04DX002 (ip), vehicle: saline with Tween-80

O=C(CC(=O)C(F)(F)C(F)(F)C(F)(F)F)c1csc2ccccc12
T/C (dose: 8.0 mg/kg/injection, schedule: Q01DX015 (ip), vehicle: saline): 87 % of control | T/C [1]: 109 % of control | T/C (dose: 16.0 mg/kg/injection, schedule: Q01DX015 (ip), vehicle: saline): 87 % of control | T/C [2]: 108 % of control | T/C (dose: 32.0 mg/kg/injection, schedule: Q01DX015 (ip), vehicle: saline): 87 % of control | T/C [3]: 96 % of control | T/C (dose: 50.0 mg/kg/injection, schedule: Q04DX003 (ip), vehicle: acetone): 101 % of control | T/C [4]: 104 % of control | T/C [5]: 102 % of control

S=C1SCN(CCc2ccccc2)CN1CCc1ccccc1
T/C (dose: 100.0 mg/kg/injection, schedule: Q04DX002 (ip), vehicle: gum acacia): 92 % of control | T/C (dose: 200.0 mg/kg/injection, schedule: Q04DX002 (ip), vehicle: gum acacia): 98 % of control | T/C (dose: 400.0 mg/kg/injection, schedule: Q04DX002 (ip), vehicle: gum acacia): 92 % of control

O=C(NCO)NCO
T/C [6]: 95 % of control | T/C (dose: 150.0 mg/kg/injection, schedule: Q01DX001 (ip), vehicle: Klucel (hydroxypropylcellulose) (HPC)): 93 % of control | T/C (dose: 300.0 mg/kg/injection, schedule: Q01DX001 (ip), vehicle: Klucel (hydroxypropylcellulose) (HPC)): 97 % of control

O=C(Nc1ccc2ccccc2c1)c1ccc(Cl)c(Cl)c1
T/C [7]: 95 % of control | T/C [8]: 103 % of control | T/C [9]: 103 % of control

Fc1c(Cl)c(Cl)c(Cl)c(Cl)c1Cl
T/C (dose: 100.0 mg/kg/injection, schedule: Q01DX009 (ip), vehicle: saline sonified): 110 % of control | T/C [10]: 96 % of control | T/C (dose: 200.0 mg/kg/injection, schedule: Q01DX009 (ip), vehicle: saline sonified): 100 % of control | T/C [11]: 97 % of control | T/C (dose: 400.0 mg/kg/injection, schedule: Q01DX009 (ip), vehicle: saline sonified): 95 % of control | T/C [12]: 96 % of control

O=c1[nH]c(-c2ccc(O)cc2)nc2[nH]ncc12
T/C [10]: 88 % of control | T/C [11]: 86 % of control

OCC1OC(n2cnc3cncnc32)C(O)C1O (stereo not given)
T/C (dose: 1.9 mg/kg/injection, schedule: Q01DX015 (ip), vehicle: saline): 108 % of control | T/C (dose: 2.5 mg/kg/injection, schedule: Q01DX015 (ip), vehicle: saline): 104 % of control | T/C (dose: 2.8 mg/kg/injection, schedule: Q01DX015 (ip), vehicle: saline): 151 % of control | T/C (dose: 4.3 mg/kg/injection, schedule: Q01DX015 (ip), vehicle: saline): 110 % of control | T/C (dose: 5.0 mg/kg/injection, schedule: Q01DX015 (ip), vehicle: saline): 106 % of control | T/C (dose: 6.5 mg/kg/injection, schedule: Q01DX015 (ip), vehicle: saline): 108 % of control | T/C (dose: 9.7 mg/kg/injection, schedule: Q01DX015 (ip), vehicle: saline): 112 % of control | T/C (dose: 10.0 mg/kg/injection, schedule: Q01DX015 (ip), vehicle: saline): 118 % of control | T/C (dose: 20.0 mg/kg/injection, schedule: Q01DX015 (ip), vehicle: saline): 93 % of control | T/C [13]: 117 % of control and 122 % of control | T/C [4]: 123 % of control

COc1cc(O)c2ncccc2c1O
T/C (dose: 5.0 mg/kg/injection, schedule: Q01DX001 (ip), vehicle: saline): 95 % of control | T/C (dose: 10.0 mg/kg/injection, schedule: Q01DX001 (ip), vehicle: saline): 101 % of control | T/C (dose: 20.0 mg/kg/injection, schedule: Q01DX001 (ip), vehicle: saline): 106 % of control | T/C (dose: 35.0 mg/kg/injection, schedule: Q01DX001 (ip), vehicle: saline): 86 % of control and 91 % of control | T/C (dose: 40.0 mg/kg/injection, schedule: Q01DX001 (ip), vehicle: saline): 103 % of control | T/C [13]: 93 % of control and 89 % of control

CC(=O)OC1COC(n2cnc3c(N4CCCCC4)nc(Cl)nc32)C(OC(C)=O)C1OC(C)=O (stereo not given)
T/C [4]: 102 % of control | T/C [5]: 96 % of control | T/C [14]: 102 % of control

NC(=O)NC(CC(=O)O)C(=O)O (stereo not given)
T/C [15]: 117 % of control | T/C [16]: 101 % of control | T/C [17]: 92 % of control

COc1ccccc1CN1CCCN(Cc2ccccc2OC)C1c1cc(Cl)ccc1O
T/C [13]: 101 % of control | T/C [4]: 95 % of control | T/C [5]: 97 % of control | T/C [14]: 101 % of control

Cc1nnnn1-c1ccc([N+](=O)[O-])cc1
T/C [15]: 101 % of control | T/C [16]: 101 % of control | T/C [17]: 93 % of control

Cc1ncc(CCl)n1Cc1ccccc1
T/C (dose: 6.25 mg/kg/injection, schedule: Q04DX002 (ip), vehicle: saline): 95 % of control and 87 % of control | T/C (dose: 12.5 mg/kg/injection, schedule: Q04DX002 (ip), vehicle: Klucel (hydroxypropylcellulose) (HPC)): 110 % of control | T/C (dose: 12.5 mg/kg/injection, schedule: Q04DX002 (ip), vehicle: saline): 114 % of control and 90 % of control | T/C (dose: 25.0 mg/kg/injection, schedule: Q01DX009 (ip), vehicle: saline): 94 % of control and 104 % of control | T/C (dose: 25.0 mg/kg/injection, schedule: Q04DX002 (ip), vehicle: Klucel (hydroxypropylcellulose) (HPC)): 95 % of control | T/C [13]: 96 % of control | T/C (dose: 50.0 mg/kg/injection, schedule: Q01DX009 (ip), vehicle: saline): 93 % of control and 119 % of control | T/C (dose: 50.0 mg/kg/injection, schedule: Q04DX002 (ip), vehicle: Klucel (hydroxypropylcellulose) (HPC)): 100 % of control | T/C [4]: 97 % of control | T/C (dose: 100.0 mg/kg/injection, schedule: Q01DX009 (ip), vehicle: saline): 89 % of control and 90 % of control | T/C (dose: 100.0 mg/kg/injection, schedule: Q04DX003 (ip), vehicle: saline): 90 % of control | T/C (dose: 200.0 mg/kg/injection, schedule: Q04DX003 (ip), vehicle: saline): 93 % of control

COc1ccc(-c2cc(=O)c3c(O)cc(O)c(-c4cc(-c5cc(=O)c6c(O)cc(OC)cc6o5)ccc4OC)c3o2)cc1
T/C (dose: 55.0 mg/kg/injection, schedule: Q01DX Z (ip), vehicle: methylcellulose (MC)): 98 % of control | T/C (dose: 83.0 mg/kg/injection, schedule: Q01DX Z (ip), vehicle: methylcellulose (MC)): 92 % of control | T/C (dose: 125.0 mg/kg/injection, schedule: Q01DX Z (ip), vehicle: methylcellulose (MC)): 93 % of control

CCCCOP(=O)(/C=C/c1ccccc1)OCCCC
T/C [18]: 122 % of control | T/C [19]: 91 % of control

c1ccc(-c2nc(N=C3N=c4ccccc4=N3)[nH]c2-c2ccccc2)cc1
T/C [10]: 112 % of control | T/C [11]: 100 % of control | T/C [12]: 96 % of control

Cc1ccc(S(=O)(=O)N/N=C\c2cccc([N+](=O)[O-])c2)cc1
T/C [7]: 103 % of control | T/C [8]: 98 % of control | T/C [9]: 93 % of control

c1cc2c(c(NC3=NCCN3)c1)CCCC2
T/C [1]: 98 % of control | T/C [2]: 93 % of control | T/C [3]: 95 % of control

O=C1C=C(O/C=C/C(C(F)(F)F)C(F)(F)F)C(=O)c2ccccc21
T/C (dose: 6.25 mg/kg/injection, schedule: Q01DX001 (ip), vehicle: Klucel (hydroxypropylcellulose) (HPC)): 100 % of control | T/C (dose: 6.25 mg/kg/injection, schedule: Q01DX009 (ip), vehicle: Klucel (hydroxypropylcellulose) (HPC)): 91 % of control | T/C (dose: 12.5 mg/kg/injection, schedule: Q01DX001 (ip), vehicle: Klucel (hydroxypropylcellulose) (HPC)): 101 % of control | T/C (dose: 12.5 mg/kg/injection, schedule: Q01DX009 (ip), vehicle: Klucel (hydroxypropylcellulose) (HPC)): 95 % of control | T/C (dose: 25.0 mg/kg/injection, schedule: Q01DX001 (ip), vehicle: Klucel (hydroxypropylcellulose) (HPC)): 103 % of control | T/C (dose: 50.0 mg/kg/injection, schedule: Q01DX001 (ip), vehicle: Klucel (hydroxypropylcellulose) (HPC)): 101 % of control | T/C [6]: 96 % of control

N#Cc1c(/N=C/c2ccccc2Cl)sc2c1CCC2
T/C [18]: 91 % of control | T/C [19]: 105 % of control | T/C (dose: 400.0 mg/kg/injection, schedule: Q04DX002 (ip), vehicle: saline with Tween-80): 91 % of control

Cc1cc2c(cc1[N+](=O)[O-])OCCO2
T/C [15]: 93 % of control | T/C [16]: 89 % of control | T/C [17]: 88 % of control
